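Five concentrations, 48 hours, 96-well plates. Here, GI50 denotes the concentration required for 50% inhibition of growth.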 Active and inactive are the calls of the source. Cut-off read from the data, not from the text of the source: active = GI50 up to about 1.1 µM and inactive = higher.
What was measured:
Assay in all cases: NCI anticancer screen, dose series, 48 h
SF-268 = tested on: SF-268
A498 = tested on: A498
NCI-H226 = tested on: NCI-H226
OVCAR-5 = tested on: OVCAR-5
BT-549 = tested on: BT-549
HCC 2998 = tested on: HCC 2998
OVCAR-8 = tested on: OVCAR-8
SF-295 = tested on: SF-295
ACHN = tested on: ACHN
CAKI-1 = tested on: CAKI-1
MDA-MB-231 = tested on: MDA-MB-231
NCI/ADR-RES = tested on: NCI/ADR-RES
SF-539 = tested on: SF-539
HL-60 = tested on: HL-60
PC-3 = tested on: PC-3
UACC-257 = tested on: UACC-257
TK-10 = tested on: TK-10
HT-29 = tested on: HT-29
KM12 = tested on: KM12

| Compound | GI50 (SF-268) | GI50 (A498) | GI50 (NCI-H226) | GI50 (OVCAR-5) | GI50 (BT-549) | GI50 (HCC 2998) | GI50 (OVCAR-8) | GI50 (SF-295) | GI50 (ACHN) | GI50 (CAKI-1) | GI50 (MDA-MB-231) | GI50 (NCI/ADR-RES) | GI50 (SF-539) | GI50 (HL-60) | GI50 (PC-3) | GI50 (UACC-257) | GI50 (TK-10) | GI50 (HT-29) | GI50 (KM12) |
| --- | --- | --- | --- | --- | --- | --- | --- | --- | --- | --- | --- | --- | --- | --- | --- | --- | --- | --- | --- |
| COc1ccc(/N=C(Nc2ccc(OC)cc2)/C(=N/c2ccc(OC)cc2)Nc2ccc(OC)cc2)cc1 | > 100 µM (inactive) | > 100 µM (inactive) | > 100 µM (inactive) | > 100 µM (inactive) | > 100 µM (inactive) | > 100 µM (inactive) | > 100 µM (inactive) | > 100 µM (inactive) | > 100 µM (inactive) | > 100 µM (inactive) | > 100 µM (inactive) | > 100 µM (inactive) | > 100 µM (inactive) | 14.1 µM (inactive) | 3.9 µM (inactive) | > 100 µM (inactive) | > 100 µM (inactive) | > 100 µM (inactive) | 14.7 µM (inactive) |
| CC(=O)C1(O)CCC2(O)C3(O)CC=C4CC(O)CCC4(C)C3CC(OC(=O)c3ccc(O)cc3)C12C (stereo not given) | > 100 µM (inactive) | > 100 µM (inactive) | 80.2 µM (inactive) | > 100 µM (inactive) | > 100 µM (inactive) | > 100 µM (inactive) | > 100 µM (inactive) | > 100 µM (inactive) | > 100 µM (inactive) | > 100 µM (inactive) | > 100 µM (inactive) | > 100 µM (inactive) | > 100 µM (inactive) | > 100 µM (inactive) | > 100 µM (inactive) | > 100 µM (inactive) | > 100 µM (inactive) | > 100 µM (inactive) | > 100 µM (inactive) |
| CC(C)(C)OC(=O)N(CCCCNC(=O)c1ccccc1)CCCNC(=O)c1ccccc1 | > 100 µM (inactive) | > 100 µM (inactive) | > 100 µM (inactive) | > 100 µM (inactive) | > 100 µM (inactive) | > 100 µM (inactive) | > 100 µM (inactive) | > 100 µM (inactive) | > 100 µM (inactive) | > 100 µM (inactive) | > 100 µM (inactive) | 68.1 µM (inactive) | > 100 µM (inactive) | 31.4 µM (inactive) | 98.6 µM (inactive) | > 100 µM (inactive) | > 100 µM (inactive) | > 100 µM (inactive) | > 100 µM (inactive) |
| N#CCCC(C=O)(CCC#N)CCC#N | > 100 µM (inactive) | > 100 µM (inactive) | > 100 µM (inactive) | > 100 µM (inactive) | > 100 µM (inactive) | > 100 µM (inactive) | > 100 µM (inactive) | > 100 µM (inactive) | > 100 µM (inactive) | > 100 µM (inactive) | > 100 µM (inactive) | > 100 µM (inactive) | > 100 µM (inactive) | > 100 µM (inactive) | > 100 µM (inactive) | > 100 µM (inactive) | > 100 µM (inactive) | > 100 µM (inactive) | > 100 µM (inactive) |
| O=C(/C=C/c1ccc(Cl)c(Cl)c1)CCN1CCN(CCC(=O)/C=C/c2ccc(Cl)c(Cl)c2)CC1 | 35.4 µM (inactive) | 34.9 µM (inactive) | 19.7 µM (inactive) | 19.2 µM (inactive) | 24.1 µM (inactive) | 14.1 µM (inactive) | 33.7 µM (inactive) | 19.7 µM (inactive) | 16.9 µM (inactive) | 15.6 µM (inactive) | 25 µM (inactive) | 36.9 µM (inactive) | 14.4 µM (inactive) | 6.22 µM (inactive) | 20.1 µM (inactive) | 33 µM (inactive) | 18 µM (inactive) | 17.7 µM (inactive) | 12.5 µM (inactive) |
| C/C(=N/NC(=S)Nc1cccc(Cl)c1)c1cccc(/C(C)=N\NC(=S)Nc2cccc(Cl)c2)n1 |  | 4.85 µM (inactive) | 0.998 µM (active) | 6.43 µM (inactive) | 0.94 µM (active) | 6.85 µM (inactive) | 0.902 µM (active) | 1.77 µM (inactive) | 0.813 µM (active) | 2.86 µM (inactive) | 2.69 µM (inactive) | 1.09 µM (active) | 0.597 µM (active) | 1.22 µM (inactive) | 3.46 µM (inactive) | 4.66 µM (inactive) | 2.02 µM (inactive) | 2.27 µM (inactive) | 3.52 µM (inactive) |
| COc1c(O)cc2oc(-c3ccc(O)cc3)cc(=O)c2c1O [HISPIDULIN] | 46.6 µM (inactive) | 2.57 µM (inactive) | 77.6 µM (inactive) | 75.2 µM (inactive) | 28.3 µM (inactive) | 28.7 µM (inactive) |  | 44.1 µM (inactive) | 26.8 µM (inactive) |  | 74.5 µM (inactive) | 36.1 µM (inactive) | 27 µM (inactive) | 24.5 µM (inactive) | 34.2 µM (inactive) | > 100 µM (inactive) | 39.2 µM (inactive) | 45.7 µM (inactive) | 31.5 µM (inactive) |

— ChEMBL document CHEMBL1201862, “PubChem BioAssay data set” (2004)
